Assay results as given in patent publication US20240309014A1, “MACROCYCLIC COMPOUNDS AND USES THEREOF” (President and Fellows of Harvard College, priority 2017, published 2024).

Test system: α-SMA expression in BJ normal human fibroblasts
Test: α-SMA expression in BJ fibroblasts co-cultivated with FaDu cells
Assay type: cell-based
Conditions: BJ cells co-cultured with FaDu for three days
Procedure: FIG. 19A. BJ cells (normal human […] fibroblasts) were co-cultured with FaDu cells for three days in the absence (vehicle) or presence of A83-01, a potent selective TGF-β-R inhibitor, and the expression of α-SMA was analysed by immunofluorescence staining (red color). Samples were also stained with anti-pan-human cytokeratin (green color) for cancer cell staining and DAPI (blue color) for nuclear staining. FIGS. 19B-19E BJ cells were treated with Compound (1) (0.15 nmol/L in immunofluorescence staining data and indicated concentrations in western blot analysis data) and TGF-β for 2 days. FIGS. 19B-19E. Samples were stained with the indicated antibody (red color) and DAPI (blue color) for nuclear staining. FIG. 19E Western blot images and quantification of the images. […] FIGS. 19G and 19E BJ cells were pretreated with defactinib (1 μmol/L) and TGF-β for 2 days. The lens magnification used was x4 (FIGS. 19A, 19B, 19C, 19G, and 19H) or x40 (FIGS. 19D and 19E).
The expression of α-SMA was induced in BJ normal human fibroblasts upon co-cultivation with FaDu cells, and the expression was attenuated by treatment with A83-01, a potent selective inhibitor of the TGF-β-receptor (FIG. 19A).

For Cc1cccc(-c2nn(C(=S)Nc3ccccc3)cc2-c2ccnc3ccccc23)n1 [Compound A83-01], the “expression of α-SMA induced upon co-cultivation with FaDu cells” value was “attenuated”.
